Results: patent US20060094685A1, “Medicinal composition for drug-induced neuropathy” (priority 2002, published 2006)
Counter-ions that a name gives are not always drawn.

Legend:
[1] = tested on: Vincristine-induced Sensory Neuropathy Mouse; assay: Tail Flick Test using vincristine-induced sensory neuropathy mouse; type: in vivo, mouse (male ICR strain); settings: CDP-choline·Na 500 mg/kg oral once a day for 10 weeks
Experimental: Experiment: Tail Flick Test Using Vincristine-induced Sensory Neuropathy Mouse (In Vivo) (1) Preparation of Mouse with Vincristine-induced Sensory Neuropathy Vincristine (0.05 mg/kg for the first time, 0.125 mg/kg for the second time and the following) dissolved in injectable physiological saline was intraperitoneally administered to male ICR strain mice (7-week-old, 10 per group) twice a week for 10 weeks to induce sensory neuropathy. (2) Administration of CDP-choline CDP-choline·Na was dissolved in distilled water, and oral administration thereof (500 mg/kg per dose) was started on the same day as vincristine once a day for 10 weeks. (3) Tail Flick Test A photothermic stimulation was given to the tail of mouse, and the reaction latency up to the motion of the tail upon sensing the heat was measured. The measurement results of the reaction latency of a control group, a vincristine administration group and a vincristine administration group with administration of CDP-choline (500 mg/kg) are shown in FIG. 1.

[2] = tested on: Mice With Acrylamide Induced Sensory Neuropathy; assay: Tail Flick Test using mice with acrylamide-induced sensory neuropathy; type: in vivo, mouse (male ICR strain); settings: CDP-choline·Na 100 mg/kg oral once a day for 1 week
Experimental: Experiment: Tail Flick Test Using Mice With Acrylamide Induced Sensory Neuropathy (In Vivo) (1) Preparation of Mouse With Acrylamide-induced Sensory Neuropathy Acrylamide (2.5 mg/mice) dissolved in injectable physiological saline was intraperitoneally administered to male ICR strain mice (7-week-old, 10 per group) 5 times a week for 1 week to induce sensory neuropathy. (2) Administration of CDP-choline CDP-choline·Na was dissolved in distilled water, and oral administration thereof (100 mg/kg per dose) was started on the same day as acrylamide once a day for 1 week. (3) Tail Flick Test A photothermic stimulation was given to the tail of mouse, and the reaction latency up to the motion of the tail upon sensing the heat was measured. The measurement results of the reaction latency of a control group, an acrylamide administration group and an acrylamide administration group with administration of CDP-choline (100 mg/kg) are shown in FIG. 2.

C[N+](C)(C)CCOP(=O)(O)OP(=O)([O-])OC[C@H]1O[C@@H](n2ccc(N)nc2=O)[C@H](O)[C@@H]1O [CDP-choline, cytidine 5′-diphosphocholine-monosodium salt]
suppression of vincristine-induced sensory neuropathy (hyperesthesia-like symptom) ([1]; started on the same day as vincristine i.p. twice a week, 10 mice per group): almost completely suppressed
reaction latency in Tail Flick Test ([1]; vincristine-treated mice, compared to control group, FIG. 1): of the same level as the control group
suppression of acrylamide-induced sensory neuropathy (hyperesthesia-like symptom) ([2]; started on the same day as acrylamide i.p. 5 times a week, 10 mice per group): almost completely suppressed
reaction latency in Tail Flick Test ([2]; acrylamide-treated mice, compared to control group, FIG. 2): of the same level as the control group
